Among the data in patent US20020169326A1, “Esters and amides as PLA2 inhibitors” (FUJISAWA PHARMACEUTICAL COMPANY, LTD., priority 1995, published 2002) are inhibition and melting point values, retold here.

By inhibition is commonly meant how much of the control response was suppressed. The term melting point denotes the temperature, or range, at which the solid turns liquid.

One series deals with T1, human recombinant PLA2 group II enzyme (Homo sapiens, UniProt P14555).
T1 sequence (P14555 21-144): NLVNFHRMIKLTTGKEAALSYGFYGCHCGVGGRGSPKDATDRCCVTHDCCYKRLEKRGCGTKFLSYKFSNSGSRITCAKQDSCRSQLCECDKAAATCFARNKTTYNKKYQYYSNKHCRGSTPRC
The series can be described thus: Test on the inhibitory effect against phospholipase A2 (PLA2), fluorescent phospholipid substrate. Format: biochemical. To be noted: dose 1 × 10^−6 M; 10-pyrene PA-monomethyl ester substrate, room temperature, 10 minutes; read-out: Percent inhibition: inhibition (%). As to the method:
Test on the inhibitory effect against phospholipase A2 (PLA2)
PLA2 activity was assayed with a fluorescent phospholipid analogue [1-palmitoyl-2-(10-pyrenyldecanoyl)-sn-glycero-3-monomethylphosphatidic acid(10-pyrene PA-monomethyl ester)] as a substrate, according to Radvanyi et al. (1989) with several modifications. Briefly, the reaction medium was prepared by sequential addition of 1160 μl of 50 mM Tris-HCl (pH 7.4) buffer containing 100 mM NaCl and 1 mM EDTA, 10 μl of 120 μM 10-pyrene PA-monomethyl ester in ethanol, 10 μl of drug sample in methanol and 10 μl of 1.2 μg/ml human recombinant PLA2 group II enzyme. The enzymatic reaction was then initiated with 10 μl of 0.84 M CaCl2. Following incubation at room temperature for 10 minutes, the reaction was terminated by addition of 25 μl of 1 M EDTA and 10 μl of 10 mg/ml β-cyclodextrin. Fluorescence measurements were carried out with a JASCO Corporation FP-777 spectrofluorometer. Excitation and emission wavelengths were 345 nm and 380 nm, respectively. All data are the average of at least duplicate determinations corrected for the spontaneous fluorescence of the reaction medium. Data were expressed as percent inhibition.
F. Radvanyi, L. Jordan, F. Russo-Marie and C. Bon: A sensitive and continuous fluorometric assay for phospholipase A2 using pyrene-labeled phospholipids in the presence of serum albumin. […]
Regarding `NC(=O)C[C@H](Cc1ccc2ccccc2c1)OC(=O)[C@H](CCCC(=O)O)NC(=O)c1cc2ccccc2cc1Cc1ccccc1` [Example 24, (3S)-3-[(2S)-2-(3-Benzylnaphthalen-2-ylcarbonylamino)-5-carboxypentanoyl]oxy-4-(2-naphthyl)butanamide], the inhibition at 1 µM came out at 100%.

Tested on in the next series: not given
Experiment: not given
Settings: not given
In the case of `CCCCCC[C@@H](CC(N)=O)N(CCCC)C(=O)[C@H](CCCC(=O)O)NC(=O)c1cn(Cc2ccccc2Cl)c2ccccc12`, the melting point was in the range of 153 to 156 °C. The compound `CCN(C(=O)[C@H](CCCC(=O)O)NC(=O)c1cn(Cc2ccccc2Cl)c2ccccc12)[C@H](CC(N)=O)Cc1ccc2ccccc2c1` yielded a melting point of 110 to 114 °C. As for `CCCCCC[C@@H](CC(N)=O)N(CCCC)C(=O)[C@H](CCCC(=O)O)NC(=O)c1cn(Cc2ccccc2)c2ccccc12`, the melting point lay within 124 to 127 °C.

`CCCCCCCCCCCCC[C@@H](CC(N)=O)N(CC(C)C)C(=O)[C@H](CCCC(=O)O)NC(=O)c1ccc2ccccc2n1` [Example 149, (3S)-3-[N-Isobutyl-{(2S)-5-carboxy-2-(2-quinolylcarbonylamino)pentanoyl}amino]hexadecanamide] yielded a melting point of 65 to 66 °C. In turn, `CCN(C(=O)[C@H](CCCC(=O)O)NC(=O)c1cn(Cc2cccc3ccccc23)c2ccccc12)[C@H](CC(N)=O)Cc1ccc2ccccc2c1` returned a melting point of 118 to 126 °C.

For the compound `CCCN(C(=O)[C@H](CCCC(=O)O)NC(=O)c1cn(Cc2ccccc2)c2ccccc12)[C@H](CC(N)=O)Cc1ccc(C)cc1`, the melting point is 83 to 92 °C. On to `CCCN(C(=O)[C@H](CCCC(=O)O)NC(=O)c1cn(Cc2ccccn2)c2ccccc12)[C@H](CC(N)=O)Cc1ccc2cc(CC)ccc2c1`, for which the melting point fell in the range of 110 to 116 °C. In turn, `CCCCCC[C@@H](CC(N)=O)N(CCC)C(=O)[C@H](CCCC(=O)O)NC(=O)c1cn(Cc2ccccc2Cl)c2ccccc12` displayed a melting point of 175 to 180 °C. Still for that read-out and setting: the figure for `CCCCN(C(=O)[C@H](CCCC(=O)O)NC(=O)c1cn(Cc2ccccc2)c2ccccc12)[C@H](CC(N)=O)Cc1ccc2cc(CC)ccc2c1` is 100 to 116 °C. On to `CC(C)(C)OC(=O)N[C@@H](CCCC(=O)OCc1ccccc1)C(=O)O[C@H](CC(N)=O)Cc1ccc(-c2ccccc2)cc1` [Example 40, (3S)-3-[(2S)-5-Benzyloxycarbonyl-2-(tert-butoxycarbonylamino)pentanoyl]oxy-4-(4-biphenylyl)butanamide], for which the melting point fell in the range of 94 to 98 °C. As to `CCCN(C(=O)[C@H](CCCC(=O)O)NC(=O)c1cn(Cc2ccccc2)c2ccccc12)[C@H](CC(N)=O)Cc1ccc2cc(CC)ccc2c1`, the melting point lay within 105 to 116 °C. Still for that read-out and setting: the figure for `CCCCCC[C@@H](CC(N)=O)N(CCC)C(=O)[C@H](CCCC(=O)O)NC(=O)c1cn(Cc2ccccc2)c2ccccc12` is 147 to 157 °C; for `CCCCCCCCC[C@@H](CC(N)=O)N(CCC)C(=O)[C@H](CCCC(=O)O)NC(=O)c1cn(Cc2ccccc2Cl)c2ccccc12` it is 145 to 150 °C; for `CCN(C(=O)[C@H](CCCC(=O)O)NC(=O)c1cn(Cc2ccccc2)c2ccccc12)[C@H](CC(N)=O)Cc1ccc2ccccc2c1` it is 110 to 112 °C. Compound `CCCCc1ccc(C[C@@H](CC(N)=O)N(CCC)C(=O)[C@H](CCCC(=O)O)NC(=O)c2cn(Cc3ccccc3Cl)c3ccccc23)cc1` yielded a melting point of 83 to 87 °C. `CCCCCC[C@@H](CC(N)=O)N(CCC)C(=O)[C@H](CCCC(=O)O)NC(=O)c1cn(Cc2ccccn2)c2ccccc12` came in with a melting point of 78 to 95 °C. The same measure, in the same setting: the figure for `CCCCCCCCC[C@@H](CC(N)=O)N(CCC)C(=O)[C@H](CCCC(=O)O)NC(=O)c1cn(Cc2ccccc2)c2ccccc12` is 155 to 160 °C; for `CCCCCC[C@@H](CC(N)=O)N(CCCCC)C(=O)[C@H](CCCC(=O)O)NC(=O)c1cn(Cc2ccccc2)c2ccccc12` it is 127 to 129 °C; for `CCCN(C(=O)[C@H](CCCC(=O)O)NC(=O)c1cn(Cc2ccccc2Cl)c2ccccc12)[C@H](CC(N)=O)Cc1ccc(C)cc1` it is 79 to 96 °C. `CCCC[C@@H](CC(N)=O)N(CCC)C(=O)[C@H](CCCC(=O)O)NC(=O)c1cn(Cc2ccccc2Cl)c2ccccc12` showed a melting point of 95 to 98 °C. Regarding `CCCCCCCc1ccc(C[C@@H](CC(N)=O)N(CCCC)C(=O)[C@H](CCCC(=O)O)NC(=O)c2cn(Cc3ccccc3Cl)c3ccccc23)cc1`, the melting point fell in the range of 79 to 81 °C. `CN(CCC(N)=O)C(=O)[C@H](CCCC(=O)O)NC(=O)c1cc2ccccc2cc1Cc1ccccc1` [Example 180, 3-[N-Methyl-{(2S)-2-(3-benzylnaphthalen-2-ylcarbonyl)amino-5-carboxypentanoyl}amino]propanamide]: the melting point is 147 to 157 °C.

In turn, `CCCCCN(C(=O)[C@H](CCCC(=O)O)NC(=O)c1cn(Cc2ccccc2)c2ccccc12)[C@H](CC(N)=O)Cc1ccc2ccccc2c1` returned a melting point of 89 to 93 °C. The same measure, in the same setting: the figure for `CCCCCCCCC[C@@H](CC(N)=O)N(CCCCC)C(=O)[C@H](CCCC(=O)O)NC(=O)c1cn(Cc2ccccc2)c2ccccc12` is 125 to 127 °C.

`CCCCCN(C(=O)[C@H](CCCC(=O)O)NC(=O)c1cn(Cc2cccc3ccccc23)c2ccccc12)[C@H](CC(N)=O)Cc1ccc2ccccc2c1` displayed a melting point of 112 to 116 °C. Consider `CCCN(C(=O)[C@H](CCCC(=O)O)NC(=O)c1cn(Cc2cccc3ccccc23)c2ccccc12)[C@H](CC(N)=O)Cc1ccc2ccccc2c1`, for which the melting point is 123 to 126 °C. On the same count and under the same terms, with `CCCCCC[C@@H](CC(N)=O)N(CCC)C(=O)[C@H](CCCC(=O)O)NC(=O)c1cn(Cc2cccc(Cl)c2)c2ccccc12` the figure was 106 to 109 °C; with `CCCCCCCCCCCCC[C@@H](CC(N)=O)N(CCC)C(=O)[C@H](CCCC(=O)O)NC(=O)c1ccc2ccccc2n1.Cl`, 59 to 62 °C. As to `CCCN(C(=O)[C@H](CCC(=O)O)NC(=O)c1cn(Cc2ccccc2Cl)c2ccccc12)[C@H](CC(N)=O)Cc1ccc2ccccc2c1`, the melting point was in the range of 85 to 92 °C.

Compound `CCCC[C@@H](CC(N)=O)N(CCC)C(=O)[C@H](CCCC(=O)O)NC(=O)c1cn(Cc2cccc3ccccc23)c2ccccc12` displayed a melting point of 98 to 116 °C. As for `CCCN(C(=O)[C@H](CCCC(=O)O)NC(=O)c1cn(Cc2ccccc2)c2ccccc12)[C@H](CC(N)=O)Cc1ccc2ccccc2c1`, the melting point fell in the range of 91 to 94 °C. The same measure, in the same setting: the figure for `CCCCCC[C@@H](CC(N)=O)N(CC)C(=O)[C@H](CCCC(=O)O)NC(=O)c1cn(Cc2ccccc2Cl)c2ccccc12` is 180 to 183 °C. For the compound `Cc1ccc(Cn2c(C(=O)N[C@@H](CCCC(=O)O)C(=O)O[C@H](CC(N)=O)Cc3ccc4ccccc4c3)cc3ccccc32)cc1` [Example 165, (3S)-3-[(2S)-5-Carboxy-2-[{1-(4-methylbenzyl)indol-2-ylcarbonyl}amino]pentanoyl]oxy-4-(2-naphthyl)butanamide], the melting point was 86 to 90 °C. `CCCCc1ccc(C[C@@H](CC(N)=O)N(CCC)C(=O)[C@H](CCCC(=O)O)NC(=O)c2cn(Cc3ccccc3)c3ccccc23)cc1` yielded a melting point of 82 to 88 °C.

In turn, `CCCC[C@@H](CC(N)=O)N(CCCC)C(=O)[C@H](CCCC(=O)O)NC(=O)c1cn(Cc2ccccc2Cl)c2ccccc12` came in with a melting point of 105 to 110 °C. The compound `CCCC[C@@H](CC(N)=O)N(CCCC)C(=O)[C@H](CCCC(=O)O)NC(=O)c1cn(Cc2cccc3ccccc23)c2ccccc12` returned a melting point of 105 to 113 °C. Still for that read-out and setting: with `CCCCc1ccc(C[C@@H](CC(N)=O)N(CCCC)C(=O)[C@H](CCCC(=O)O)NC(=O)c2cn(Cc3ccccc3)c3ccccc23)cc1` the figure was 77 to 82 °C.

`CCCCN(C(=O)[C@H](CCCC(=O)O)NC(=O)c1cn(Cc2ccccc2Cl)c2ccccc12)[C@H](CC(N)=O)Cc1ccc2ccccc2c1` showed a melting point of 104 to 110 °C. As to `CCCCN(C(=O)[C@H](CCCC(=O)O)NC(=O)c1cn(Cc2ccccc2Cl)c2ccccc12)[C@H](CC(N)=O)Cc1ccc2cc(CC)ccc2c1`, the melting point lay in the range of 100 to 116 °C. On to `CCCCCC[C@@H](CC(N)=O)N(CCC)C(=O)[C@H](CCCC(=O)O)NC(=O)c1cn(Cc2cccc3ccccc23)c2ccccc12`, for which the melting point was in the range of 139 to 141 °C. With `CCCCCC[C@@H](CC(N)=O)N(CC)C(=O)[C@H](CCCC(=O)O)NC(=O)c1cn(Cc2ccccc2)c2ccccc12`, the melting point was 80 to 85 °C. With `CCCCc1ccc(C[C@@H](CC(N)=O)N(CCCC)C(=O)[C@H](CCCC(=O)O)NC(=O)c2cn(Cc3ccccc3Cl)c3ccccc23)cc1`, the melting point fell in the range of 166 to 168 °C. Consider `CCCCN(C(=O)[C@H](CCCC(=O)O)NC(=O)c1cn(Cc2ccccc2)c2ccccc12)[C@H](CC(N)=O)Cc1ccc2ccccc2c1`, for which the melting point was in the range of 90 to 96 °C. In turn, `CCCCCCCCCCCCC[C@@H](CC(N)=O)N(Cc1ccccn1)C(=O)[C@H](CCCC(=O)O)NC(=O)c1ccc2ccccc2n1.Cl.Cl` displayed a melting point of 74 to 81 °C.
